24 molecules from patent publication US9840515B2, “Protein kinase D inhibitors” (University of Pittsburgh—Of the Commonwealth System of …, priority 2010, dated 2017) can be followed below.

Structures are written as SMILES. Like-named read-outs stand apart in the source and are kept apart here.

Data set [1] has as its target T1, purified recombinant human PKD1 (Homo sapiens, UniProt Q15139).
T1 sequence (Q15139 1-912): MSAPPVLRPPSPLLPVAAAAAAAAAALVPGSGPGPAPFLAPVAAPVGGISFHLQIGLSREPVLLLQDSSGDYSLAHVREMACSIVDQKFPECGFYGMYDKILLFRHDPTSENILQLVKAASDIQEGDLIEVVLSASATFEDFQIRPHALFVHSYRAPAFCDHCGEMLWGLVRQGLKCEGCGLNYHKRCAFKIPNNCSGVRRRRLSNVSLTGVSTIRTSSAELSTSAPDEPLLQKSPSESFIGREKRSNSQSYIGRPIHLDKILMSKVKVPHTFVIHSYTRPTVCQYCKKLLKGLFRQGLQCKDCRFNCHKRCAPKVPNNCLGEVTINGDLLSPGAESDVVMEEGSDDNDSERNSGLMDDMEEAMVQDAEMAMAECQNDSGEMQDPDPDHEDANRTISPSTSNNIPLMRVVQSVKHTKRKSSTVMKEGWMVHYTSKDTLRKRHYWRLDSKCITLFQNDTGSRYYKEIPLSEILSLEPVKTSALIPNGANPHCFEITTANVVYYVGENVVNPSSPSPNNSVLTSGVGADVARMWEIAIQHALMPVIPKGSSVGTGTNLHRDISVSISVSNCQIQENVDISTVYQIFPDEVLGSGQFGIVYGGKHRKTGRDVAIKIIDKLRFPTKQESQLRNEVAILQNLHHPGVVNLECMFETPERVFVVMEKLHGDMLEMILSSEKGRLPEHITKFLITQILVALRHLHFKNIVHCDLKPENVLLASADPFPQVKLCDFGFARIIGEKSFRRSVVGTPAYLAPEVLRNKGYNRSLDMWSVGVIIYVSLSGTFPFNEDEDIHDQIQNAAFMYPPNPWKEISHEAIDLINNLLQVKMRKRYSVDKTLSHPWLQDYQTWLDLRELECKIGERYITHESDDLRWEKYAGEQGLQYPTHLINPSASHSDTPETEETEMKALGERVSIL
Description: radiometric PKD kinase activity assay. It is filed as biochemical. How it is done: The radiometric PKD kinase assay was carried out by co-incubating 0.5 μCi γ-32P-ATP (PerkinElmer, Boston, Mass.), 20 μM ATP, 50 ng purified recombinant human PKD (PKD1, PKD2, PKD3) proteins, and 2.5 μg Syntide-2 (Sigma) in 50 μl kinase buffer that contains 50 mM Tris-HCl, pH 7.5, 4 mM MgCl2, 10 mM β-mercaptoethanol. The reaction was carried out under sub-saturation conditions, such that the initial rate was within linear kinetic range. The reaction mixture was incubated at 30° C. for 10 min, followed by spotting 25 μl of the mix onto a Whatman P81 filter paper (Whatman Inc, Clifton, N.J.). The filter papers were then washed three times in 0.5% phosphoric acid, air-dried, and counted using a Beckman LS6500 multi-purpose scintillation counter (Beckman, Fullerton, Calif.).

In data set [2] the target is T2, PKD1 (Homo sapiens, UniProt Q15139).
T2 sequence (Q15139 1-912): T1 sequence (Q15139 1-912)
Description: IMAP-FP PKD1 assay. The format is biochemical. The text has this:
See Sharlow, E. R., et. al., J Biol Chem, 283: 33516-33526, (2008). The assay established the concentration of inhibitor that is required to reduce PKD1 activity by 50% (IC50), as shown in Table 2 above.

In data set [3] the target is T2, PKD1. The experiment in a line: Cellular inhibition of PMA-induced PKD1 S916 autophosphorylation in LNCaP cells (Western blot densitometry). As to conditions: for IC50: PKD1 autophosphorylation at S916 in LNCaP cells. Set-up: endogenous in cells; host or cells: LNCaP prostate cancer cells. It is filed as cell-based. As for the experimental part:
The compound to be tested was dissolved in DMSO at an initial concentration of 10 mM. LNCaP prostate cancer cells were pre-treated with DMSO or increasing concentrations of the compound for 45 min, followed by treatment with or without 100 nM phorbol 12-myristate 13-acetate (PMA), an activator of PKD, for 20 min. The cells were harvested for Western blot analysis.
Briefly, cells were lysed in lysis buffer containing 200 mM Tris-HCl, pH 7.4, 100 μM 4-(2-aminoethyl)benzenesulfonyl fluoride, 1 mM EGTA, and 1% Triton X-100. Protein concentration was determined using the BCA Protein Concentration Assay reagent kit (Pierce). Equal amounts of protein were subjected to SDS-PAGE followed by electrotransfer to nitrocellulose membranes. Membranes were blocked with 5% nonfat milk in Tris-buffered saline and then probed with primary antibodies for p-S916-PKD1 (Millipore), p-S744/748-PKD1 (Cell Signaling Technology), or GAPDH (Enzo), followed by anti-mouse or anti-rabbit secondary antibodies conjugated to horseradish peroxidase (Bio-Rad). The bands were detected by incubating with the enhanced chemiluminescence (ECL) Western blotting detection reagent (Amersham Biosciences) and exposing to X-ray films.
A general note: A western blot detects proteins with antibodies after separation by electrophoresis.

Where [4] appears, read: read-out: IC50 radiometric PKD1.
[5] abbreviates: radiometric kinase activity assay, in vitro, read-out: IC50 PKD1.

Take `O=C1NCCC(=NNc2ccccc2)c2c1oc1ccc(O)cc21` [kb-NB142-05, 7-Hydroxy-5-[(phenylamino)azamethylene]-2H,3H,4H-azepino[5,6-d]benzo[b]furan-1-one]: the melting point (usually the temperature of the solid-liquid transition) is 234 to 236 °C. The IC50 (as a rule, the concentration that gives 50% inhibition) in data set [1] (setting [4]) turned out to be 1130 nM. The molecule also came in with an IC50 at PKD1 [2] of 21700 ± 520 nM.

Regarding `O=C1NCCCc2c1oc1ccc(O)cc21` [CID755673, 7-Hydroxy-2,3,4,5-tetrahydro-[1]benzoxolo[2,3-c]azepin-1-one, reference compound], the IC50 is 182 ± 27 nM in data set [1] (setting [5]) and 11800 nM against PKD1 [3].

As for `O=C1NCCc2c1[nH]c1ccc(O)cc21` [kb-NB123-59, 2,3,4,9-Tetrahydro-6-hydroxy-1H-pyrido[3,4-b]indol-1-one], the melting point was 244 to 247 °C. Further, the IC50 in data set [1] (setting [4]) worked out at 1570 ± 200 nM. The same molecule displayed an IC50 against PKD1 [2] of 19400 ± 1400 nM.

For `O=C1NCCC(=NOCc2ccccc2)c2c1oc1ccc(O)cc21` [kb-NB142-10, 7-Hydroxy-5-[(phenylmethoxy)azamethylene]-2H,3H,4H-azepino[5,6-d]benzo[b]furan-1-one], the melting point was in the range of 103 to 110 °C. Besides, the “IC50 IMAP-FP PKD1” value at PKD1 [2] was “not inhibitory”.

`O=C1NCCCc2c1oc1cc(Cl)c(O)c(Cl)c21` [kb-NB96-43, 6,8-Dichloro-7-hydroxy-2,3,4,5-tetrahydro-[1]benzoxolo[2,3-c]azepin-1-one]: the melting point is 298 to 301 °C. Also, the “IC50 IMAP-FP PKD1” value against PKD1 [2] is listed as “not inhibitory”.

Consider `Nc1ccc2[nH]c3c(c2c1)CCCNC3=O` [kb-NB142-01], for which the melting point was in the range of 202 to 207 °C. Also, in data set [1] (setting [4]), the IC50 came out at 9680 ± 1010 nM. The IC50 on PKD1 [2] was 47100 ± 2500 nM.

For `O=C1NCCCc2c1oc1cc(Cl)c(O)cc21` [kb-NB96-47-5, 8-Chloro-7-hydroxy-2,3,4,5-tetrahydro-[1]benzoxolo[2,3-c]azepin-1-one], the melting point is 327 to 332 °C. For the same molecule, the 50% inhibitory concentration (IC50) at PKD1 [2] is above 100000 nM.

As for `O=C1NCCCc2c1oc1ccc(O)c(Cl)c21` [kb-NB77-88, 6-Chloro-7-hydroxy-2,3,4,5-tetrahydro-[1]benzoxolo[2,3-c]azepin-1-one], the melting point is above 300 °C. The IC50 in data set [1] (setting [4]) worked out at 890 nM. This molecule yielded an IC50 at PKD1 [2] of 1400 ± 100 nM.

In turn, `C=CCOc1ccc2oc3c(c2c1Cl)CCCNC3=O` [kb-NB96-50, 7-Allyloxy-6-chloro-2,3,4,5-tetrahydro-[1]benzoxolo[2,3-c]azepin-1-one] registered a melting point of 192 to 194 °C. On PKD1 [2], the “IC50 IMAP-FP PKD1” value is “not inhibitory”.

`Nc1ccc2[nH]c3c(c2c1)CCNC3=O` [kb-NB142-08, 6-Amino-2,3,4,9-tetrahydro-1H-pyrido[3,4-b]indol-1-one] came in with a melting point of 280 to 282 °C. For the same molecule, in data set [1] (setting [4]), the IC50 came out at 15700 ± 190 nM. It took 74400 ± 2200 nM to reach half-maximal inhibition against PKD1 [2] (IC50).

Regarding `C/C=C/c1c(O)ccc2oc3c(c12)CCCNC3=O` [kb-NB96-30, 6-[(E)-2-(Prop-1-enyl)]-7-hydroxy-2,3,4,5-tetrahydro-[1]benzoxolo[2,3-c]azepin-1-one], the melting point is above 300 °C. For the same molecule, the IC50 in data set [1] (setting [4]) was found to be 240 nM. The IC50 against PKD1 [2] amounted to 1000 ± 100 nM.

As for `CC(=O)Nc1ccc2[nH]c3c(c2c1)CCCNC3=O` [kb-NB123-94], the melting point was above 300 °C. At PKD1 [2], the “IC50 IMAP-FP PKD1” value is given as “not inhibitory”.

As to `O=C1NCCCc2c1[nH]c1ccc(OCc3ccccc3)cc21` [kb-NB123-53, 3,4,5,10-Tetrahydro-7-benzyloxy-azepino[3,4-b]indol-1(2H)-one], the “IC50 IMAP-FP PKD1” value at PKD1 [2] was “not inhibitory”.

Consider `O=C1NCCc2c1[nH]c1ccc(OCc3ccccc3)cc21` [kb-NB123-52, 2,3,4,9-Tetrahydro-6-benzyloxy-1H-pyrido[3,4-b]indol-1-one], for which the melting point was 208 to 210 °C. Also, on PKD1 [2], the “IC50 IMAP-FP PKD1” value was “not inhibitory”.

The molecule `O=C1NCCC(O)c2c1oc1ccc(O)cc21` (stereo not drawn) [kb-NB123-89, 5,7-Dihydroxy-2H,3H,4H,5H-azepino[5,6-d]benzo[b]furan-1-one] had a melting point of 280 to 282 °C. Besides, the IC50 in data set [1] (setting [4]) came to 1230 ± 210 nM. On PKD1 [2], this molecule showed an IC50 of 24100 ± 710 nM.

In the case of `NCCN1CCSc2c(sc3ccc(O)cc23)C1=O` [kb-NB165-75, 2,3-Dihydro-4-(2-aminoethyl)-9-hydroxy-[1]benzothieno[2,3-f]-1,4-thiazepin-5-one], the melting point was in the range of 250 to 254 °C. Further, the IC50 in data set [1] (setting [4]) stood at 757 nM.

Molecule `O=C1NCCCc2c1oc1ccc(O)c(F)c21` [kb-NB96-21, 6-Fluoro-7-hydroxy-2,3,4,5-tetrahydro-[1]benzoxolo[2,3-c]azepin-1-one] had a melting point above 300 °C. Moreover, the IC50 in data set [1] (setting [4]) was 240 nM. On PKD1 [2], this molecule yielded an IC50 of 1300 ± 50 nM.

In turn, `O=C1NCCCSc2c1sc1ccc(OCc3ccccc3)cc21` [kb-NB165-89, 2,3,4,5-Tetrahydro-10-benzyloxybenzo[b]thieno[2,3-f]-1,5-thiazocin-6-one] yielded a melting point of 198 to 199 °C. In data set [1] (setting [4]), the IC50 came to 21700 nM.

Regarding `O=C1NCCSc2c1sc1ccc(O)c(Br)c21` [kb-NB184-52, 3,4-Dihydro-9-hydroxy-10-bromo-[1]benzothieno[2,3-f]-1,4-thiazepin-5(2H)-one], the melting point is 235 to 238 °C (dec.). In addition, the IC50 in data set [1] (setting [4]) amounted to 48 nM.

In turn, `Cc1ccc(S(=O)(=O)NN=C2CCNC(=O)c3oc4ccc(O)cc4c32)cc1` [kb-NB142-11, 7-Hydroxy-5-({[(4-methylphenyl)sulfonyl]amino}azamethylene)-2H,3H,4H-azepino[5,6-d]benzo[b]furan-1-one] showed a melting point of 220 to 224 °C. At PKD1 [2], the IC50 came to 38200 ± 1170 nM.

`CC(=O)Nc1ccc2[nH]c3c(c2c1)CCNC3=O` [kb-NB123-93, N-(2,3,4,9-Tetrahydro-1-oxo-1H-pyrido[3,4-b]indol-6-yl)-acetamide] yielded a melting point above 300 °C. For the same molecule, on PKD1 [2], the “IC50 IMAP-FP PKD1” value is “not inhibitory”.

The molecule `O=C1NCCC(=O)c2c1oc1ccc(O)cc21` [kb-NB123-63, 7-Hydroxy-2H,3H,4H-azepino[5,6-d]benzo[b]furan-1,5-dione] had a melting point above 300 °C. In addition, the half-maximal inhibitory concentration (IC50) in data set [1] (setting [4]) worked out at 850 ± 110 nM. Besides, the IC50 at PKD1 [2] amounted to 14900 ± 1200 nM.

As to `O=C1NCCSc2c1sc1ccc(O)c(I)c21` [kb-NB165-31, 3,4-Dihydro-9-hydroxy-10-iodo-[1]benzothieno[2,3-f]-1,4-thiazepin-5(2H)-one], the melting point was 128 °C (dec.). In addition, the IC50 in data set [1] (setting [5]) worked out at 114 nM. Besides, in data set [1] (setting [4]), the IC50 was determined as 110 ± 20 nM. In addition, on PKD1 [3], the “cellular activity fold lower than kb-NB142-70” value amounted to 4 fold and the IC50 came to 8600 ± 2000 nM.

In turn, `C=CCc1c(O)ccc2oc3c(c12)CCCNC3=O` [kb-NB96-02, 6-Allyl-7-hydroxy-2,3,4,5-tetrahydro-[1]benzoxolo[2,3-c]azepin-1-one] showed a melting point of 255 to 257 °C. For the same molecule, in data set [1] (setting [4]), the IC50 was determined as 1580 nM. On PKD1 [2], this molecule came in with an IC50 of 2400 ± 300 nM.
